Measured values taken from patent US12391737B2, “Soluble NPY2 receptor agonists” (Boehringer Ingelheim International GmbH, priority 2020, dated 2025).

Columns and labels:
[1] = Solubility determination; conditions: for Sol6: pH 6; for Sol7: pH 7
Outline: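 Shake-flask style: 10 mg/ml peptide (TFA salt), 0.1 M sodium diphosphate pH 6.4/7.0, 600 rpm, 2 h, RT; filter; dilute 1 mg/ml in 50% MeCN; RP-UPLC, 0–100% B over 2 min, 50 °C. Solubility = sample/control area ratio. Final pH recorded.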

[2] = target: T1, Human Neuropeptide Y2 Receptor (Homo sapiens, UniProt P49146); assay: Radioligand binding competition assay (RLB); conditions: Table 3, 125I-PYY(1-36) competition; read-out: Ki
T1 construct: purchased CHEMICON HTS066M
T1 sequence (P49146 1-381): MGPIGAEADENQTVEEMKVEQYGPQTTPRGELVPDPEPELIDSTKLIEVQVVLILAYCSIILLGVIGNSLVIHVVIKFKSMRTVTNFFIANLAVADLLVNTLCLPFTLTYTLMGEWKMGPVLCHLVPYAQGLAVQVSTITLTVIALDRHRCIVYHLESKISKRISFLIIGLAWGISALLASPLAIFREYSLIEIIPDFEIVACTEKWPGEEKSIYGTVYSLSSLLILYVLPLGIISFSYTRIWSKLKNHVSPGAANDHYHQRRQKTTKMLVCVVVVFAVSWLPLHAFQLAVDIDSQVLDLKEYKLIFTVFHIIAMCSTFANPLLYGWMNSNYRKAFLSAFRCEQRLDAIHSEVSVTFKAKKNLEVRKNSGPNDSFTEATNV
Outline: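 Peptides were serially diluted from 1 mM DMSO stocks and competed for radioligand binding to receptor membranes (0.5 μg/well) over 2 h at room temperature, pH 7.4 HEPES buffer. Bound radioactivity on filters was counted by scintillation, and IC50 was derived by nonlinear regression.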

Row | Sol6 [1] [mg/mL] | Sol7 [1] [mg/mL] | Ki [2] [nM] | SMILES
1 | 10.0 | 9.7 | 7.15 | CC(C)CC(=O)N[C@@H](C)C(=O)N1CCC[C@H]1C(=O)N[C@@H](CCC(=O)O)C(=O)N[C@@H](CCCCNC(=O)CCCCCNC(=O)CC[C@H](NC(=O)CCCCCCCCCCCCCCCCC(=O)O)C(=O)O)C(=O)N1CCC[C@H]1C(=O)N[C@@H](CCC(=O)O)C(=O)N[C@@H](CCC(=O)O)C(=O)N[C@@H](CC(=O)O)C(=O)N[C@@H](C)C(=O)N[C@H](C(=O)N[C@@H](CC(C)C)C(=O)N[C@@H](CCC(=O)O)C(=O)N[C@@H](CCC(=O)O)C(=O)N[C@@H](CC(C)C)C(=O)N[C@@H](CCC(N)=O)C(=O)N[C@@H](CCCNC(=N)N)C(=O)N[C@@H](Cc1ccc(O)cc1)C(=O)N[C@@H](Cc1ccc(O)cc1)C(=O)N[C@H](C(=O)N[C@@H](CO)C(=O)N[C@@H](CC(C)C)C(=O)N[C@@H](CCCNC(=N)N)C(=O)N[C@@H](Cc1c[nH]cn1)C(=O)N[C@@H](Cc1ccc(O)cc1)C(=O)N[C@@H](Cc1ccc(O)cc1)C(=O)N[C@@H](CC(N)=O)C(=O)N[C@@H](Cc1c[nH]c2ccccc12)C(=O)N[C@@H](CC(C)C)C(=O)N[C@H](C(=O)N[C@@H](CCCNC(=N)N)C(=O)N[C@@H](CCC(N)=O)C(=O)N[C@@H](CCCNC(=N)N)C(=O)N[C@@H](Cc1ccc(O)cc1)C(N)=O)[C@@H](C)O)C(C)C)[C@@H](C)O [Compound 102, N{alpha-4}-(3-methylbutanoyl)-N{epsilon-7}-(6-[(4S)-4-carboxy-4-(17-carboxyheptadecanamido)butanamido]hexanoyl)-[4A,7K,9E,13T,14L,18Q,22V,28Y,30W,31L]-hPYY(4-36)]
2 | 0.0 | 0.4 | 3.39 | CC[C@H](C)[C@H](NC(=O)[C@H](CCC(=O)O)NC(=O)[C@H](CCC(=O)O)NC(=O)[C@@H]1CCCN1C(=O)[C@@H](NC(=O)[C@H](C)NC(=O)[C@H](C)NC(=O)[C@H](C)NC(=O)[C@H](CCC(=O)O)NC(=O)[C@@H]1CCCN1C(=O)[C@H](CCCCNC(=O)CCCCCNC(=O)CC[C@H](NC(=O)CCCCCCCCCCCCCCCCC(=O)O)C(=O)O)NC(=O)[C@H](CCC(=O)O)NC(=O)[C@@H]1CCCN1C(=O)[C@H](C)NC(=O)CC(C)C)[C@@H](C)O)C(=O)N[C@@H](CCC(N)=O)C(=O)N[C@@H](CCCNC(=N)N)C(=O)N[C@@H](Cc1ccc(O)cc1)C(=O)N[C@@H](Cc1ccc(O)cc1)C(=O)N[C@H](C(=O)N[C@@H](C)C(=O)N[C@@H](CC(C)C)C(=O)N[C@@H](CCCNC(=N)N)C(=O)N[C@@H](Cc1c[nH]cn1)C(=O)N[C@@H](Cc1ccc(O)cc1)C(=O)N[C@@H](Cc1ccc(O)cc1)C(=O)N[C@@H](CC(N)=O)C(=O)N[C@@H](Cc1c[nH]c2ccccc12)C(=O)N[C@@H](CC(C)C)C(=O)N[C@H](C(=O)N[C@@H](CCCNC(=N)N)C(=O)N[C@@H](CCC(N)=O)C(=O)N[C@@H](CCCNC(=N)N)C(=O)N[C@@H](Cc1ccc(O)cc1)C(N)=O)[C@@H](C)O)C(C)C [Compound 178, N{alpha-4}-(3-methylbutanoyl)-N{epsilon-7}-(6-[(4S)-4-carboxy-4-(17-carboxyheptadecanamido)butanamido]hexanoyl)-[4A,7K,9E,10A,11A,13T,17I,18Q,22V,23A,28Y,30W,31L]-hPYY(4-36)]
3 | >10.0 | >10.0 | 6.17 | CC[C@H](C)[C@H](NC(=O)[C@H](CCC(=O)O)NC(=O)[C@H](CCC(=O)O)NC(=O)[C@@H]1CCCN1C(=O)[C@H](CCCCNC(=O)CCCCCNC(=O)CC[C@H](NC(=O)CCCCCCCCCCCCCCCCC(=O)O)C(=O)O)NC(=O)[C@H](CCC(=O)O)NC(=O)[C@@H]1CCCN1C(=O)[C@H](C)NC(=O)CC(C)C)C(=O)N[C@@H](C)C(=O)N[C@H](C(=O)N1CCC[C@H]1C(=O)N[C@@H](CCC(=O)O)C(=O)N[C@@H](CCC(=O)O)C(=O)N[C@@H](CC(C)C)C(=O)N[C@@H](CCC(N)=O)C(=O)N[C@@H](CCCNC(=N)N)C(=O)N[C@@H](Cc1ccc(O)cc1)C(=O)N[C@@H](Cc1ccc(O)cc1)C(=O)N[C@H](C(=O)N[C@@H](CO)C(=O)N[C@@H](CC(C)C)C(=O)N[C@@H](CCCNC(=N)N)C(=O)N[C@@H](Cc1c[nH]cn1)C(=O)N[C@@H](Cc1ccc(O)cc1)C(=O)N[C@@H](Cc1ccc(O)cc1)C(=O)N[C@@H](CC(N)=O)C(=O)N[C@@H](Cc1c[nH]c2ccccc12)C(=O)N[C@@H](CC(C)C)C(=O)N[C@H](C(=O)N[C@@H](CCCNC(=N)N)C(=O)N[C@@H](CCC(N)=O)C(=O)N[C@@H](CCCNC(=N)N)C(=O)N[C@@H](Cc1ccc(O)cc1)C(N)=O)[C@@H](C)O)C(C)C)[C@@H](C)O [Compound 45, N{alpha-4}-(3-methylbutanoyl)-N{epsilon-7}-(6-[(4S)-4-carboxy-4-(17-carboxyheptadecanamido)butanamido]hexanoyl)-[4A,7K,9E,11I,13T,18Q,22V,28Y,30W,31L]-hPYY(4-36)]
4 | 10.0 | >10.0 | 6.42 | CC(C)CC(=O)N[C@@H](C)C(=O)N1CCC[C@H]1C(=O)N[C@@H](CCC(=O)O)C(=O)N[C@@H](CCCCNC(=O)CCCCCNC(=O)CC[C@H](NC(=O)CCCCCCCCCCCCCCCCC(=O)O)C(=O)O)C(=O)N1CCC[C@H]1C(=O)N[C@@H](CCC(=O)O)C(=O)N[C@@H](CCC(=O)O)C(=O)N[C@@H](CC(=O)O)C(=O)N[C@@H](C)C(=O)N[C@H](C(=O)N1CCC[C@H]1C(=O)N[C@@H](CCC(=O)O)C(=O)N[C@@H](CCC(=O)O)C(=O)N[C@@H](CC(C)C)C(=O)N[C@@H](CCC(N)=O)C(=O)N[C@@H](CCCNC(=N)N)C(=O)N[C@@H](Cc1ccc(O)cc1)C(=O)N[C@@H](Cc1ccc(O)cc1)C(=O)N[C@H](C(=O)N[C@@H](CCC(=O)O)C(=O)N[C@@H](CC(C)C)C(=O)N[C@@H](CCCNC(=N)N)C(=O)N[C@@H](Cc1c[nH]cn1)C(=O)N[C@@H](Cc1ccc(O)cc1)C(=O)N[C@@H](Cc1ccc(O)cc1)C(=O)N[C@@H](CC(N)=O)C(=O)N[C@@H](Cc1c[nH]c2ccccc12)C(=O)N[C@@H](CC(C)C)C(=O)N[C@H](C(=O)N[C@@H](CCCNC(=N)N)C(=O)N[C@@H](CCC(N)=O)C(=O)N[C@@H](CCCNC(=N)N)C(=O)N[C@@H](Cc1ccc(O)cc1)C(N)=O)[C@@H](C)O)C(C)C)[C@@H](C)O [Compound 110, N{alpha-4}-(3-methylbutanoyl)-N{epsilon-7}-(6-[(4S)-4-carboxy-4-(17-carboxyheptadecanamido)butanamido]hexanoyl)-[4A,7K,9E,13T,18Q,22V,23E,28Y,30W,31L]-hPYY(4-36)]
